Assay results reported in ChEMBL document CHEMBL3885861, “Open TG-GATES”.

Species on record: Rattus norvegicus
Assay: Open TG-GATES - Regimen: Daily Repeat
Type: toxicity, organism-based, Sprague-Dawley
Parameters: regimen Daily Repeat, gender Male, age 6 weeks
Settings: in vivo, sc, 0.002 mg/kg, route subcutaneous injection, dose 2 ug/Kg, dose level Low; for APTT / Bas / Eos / Fbg / Hb / Ht / Lym / MCH / MCHC / MCV / Mono / Neu / PT / Plat / RBC / Ret / WBC: tissue Blood; for KIDNEY_L / KIDNEY_R / KIDNEY_TOTAL: tissue Kidney; for LIVER: tissue Liver; for A/G / ALP / ALT / AST / BUN / CRE / Ca / Cl / DBIL / GLC / IP / K / LDH / Na / PL / RALB / TBIL / TC / TG / TP / gamma-GTP: tissue Plasma

## CC(=O)O.N=C(N)NCCC[C@@H](NC(=O)[C@@H]1CCCN1C(=O)[C@@H]1CSSCCC(=O)N[C@@H](Cc2ccc(O)cc2)C(=O)N[C@@H](Cc2ccccc2)C(=O)N[C@@H](CCC(N)=O)C(=O)N[C@@H](CC(N)=O)C(=O)N1)C(=O)NCC(N)=O [DESMOPRESSIN ACETATE]
72 h, time 3 day
  TERMINAL_BW: 236.2 g
  APTT: 16.3 s
  Bas: 0%
  Eos: 1.2%
  Fbg: 261.2 mg/dL
  Hb: 13.3 g/dL
  Ht: 41%
  Lym: 72%
  MCH: 21.1 pg
  MCHC: 32.4%
  MCV: 65.2 fL
  Mono: 8.6%
  Neu: 18.2%
  PT: 12.2 s
  Plat: 133.6 x10_4/uL
  RBC: 630 x10_4/ul
  Ret: 8.4%
  WBC: 92.6 x10_2/uL
  KIDNEY_L: 1 g
  KIDNEY_R: 1 g
  KIDNEY_TOTAL: 2.1 g
  LIVER: 10.6 g
  A/G: 2
  ALP: 1631.2 IU/L
  ALT: 37 IU/L
  AST: 69.2 IU/L
  BUN: 15 mg/dL
  CRE: 0.4 mg/dL
  Ca: 11.2 mg/dL
  Cl: 104.8 meq/L
  DBIL: 0.01 mg/dL
  GLC: 199 mg/dL
  IP: 7.1 mg/dL
  K: 5.1 meq/L
  LDH: 180.4 IU/L
  Na: 136.8 meq/L
  PL: 146.4 mg/dL
  RALB: 3.7 g/dL
  TBIL: 0.034 mg/dL
  TC: 79.2 mg/dL
  TG: 95.2 mg/dL
  TP: 5.6 g/dL
  gamma-GTP: 1 IU/L
[…], time 7 day
  TERMINAL_BW: 262 g
  APTT: 16.7 s
  Bas: 0%
  Eos: 1%
  Fbg: 265.2 mg/dL
  Hb: 13.9 g/dL
  Ht: 42.7%
  Lym: 70%
  MCH: 21.2 pg
  MCHC: 32.5%
  MCV: 65.2 fL
  Mono: 9.4%
  Neu: 19.8%
  PT: 12.1 s
  Plat: 106 x10_4/uL
  RBC: 655.8 x10_4/ul
  Ret: 6.9%
  WBC: 101 x10_2/uL
  KIDNEY_L: 1.2 g
  KIDNEY_R: 1.2 g
  KIDNEY_TOTAL: 2.4 g
  LIVER: 11.7 g
  A/G: 1.9
  ALP: 1102.8 IU/L
  ALT: 32.8 IU/L
  AST: 69.6 IU/L
  BUN: 17.8 mg/dL
  CRE: 0.4 mg/dL
  Ca: 13.6 mg/dL
  Cl: 99.4 meq/L
  DBIL: 0.012 mg/dL
  GLC: 198.6 mg/dL
  IP: 8.2 mg/dL
  K: 4.8 meq/L
  LDH: 155.6 IU/L
  Na: 130.6 meq/L
  PL: 132.2 mg/dL
  RALB: 3.7 g/dL
  TBIL: 0.044 mg/dL
  TC: 68.6 mg/dL
  TG: 99.4 mg/dL
  TP: 5.7 g/dL
  gamma-GTP: 1 IU/L
[…], time 14 day
  TERMINAL_BW: 330.1 g
  APTT: 16.6 s
  Bas: 0%
  Eos: 1%
  Fbg: 253.8 mg/dL
  Hb: 14 g/dL
  Ht: 42.8%
  Lym: 75%
  MCH: 20.2 pg
  MCHC: 32.8%
  MCV: 61.5 fL
  Mono: 8.6%
  Neu: 15.2%
  PT: 12.1 s
  Plat: 134.8 x10_4/uL
  RBC: 696.6 x10_4/ul
  Ret: 5.6%
  WBC: 119.2 x10_2/uL
  KIDNEY_L: 1.4 g
  KIDNEY_R: 1.4 g
  KIDNEY_TOTAL: 2.7 g
  LIVER: 14 g
  A/G: 1.8
  ALP: 1109.8 IU/L
  ALT: 33.8 IU/L
  AST: 70 IU/L
  BUN: 16.6 mg/dL
  CRE: 0.4 mg/dL
  Ca: 10.8 mg/dL
  Cl: 106.2 meq/L
  DBIL: 0.01 mg/dL
  GLC: 183.8 mg/dL
  IP: 6.9 mg/dL
  K: 5.3 meq/L
  LDH: 146.8 IU/L
  Na: 138.4 meq/L
  PL: 135.6 mg/dL
  RALB: 3.6 g/dL
  TBIL: 0.028 mg/dL
  TC: 66.6 mg/dL
  TG: 111.2 mg/dL
  TP: 5.7 g/dL
  gamma-GTP: 1 IU/L
[…], time 28 day
  TERMINAL_BW: 414.7 g
  APTT: 17.5 s
  Bas: 0%
  Eos: 1.2%
  Fbg: 251.8 mg/dL
  Hb: 15.1 g/dL
  Ht: 46%
  Lym: 76.2%
  MCH: 19.4 pg
  MCHC: 32.8%
  MCV: 59.4 fL
  Mono: 7.2%
  Neu: 15.8%
  PT: 12 s
  Plat: 117.6 x10_4/uL
  RBC: 774.6 x10_4/ul
  Ret: 4.2%
  WBC: 132 x10_2/uL
  KIDNEY_L: 1.5 g
  KIDNEY_R: 1.5 g
  KIDNEY_TOTAL: 3 g
  LIVER: 16.3 g
  A/G: 1.5
  ALP: 926.6 IU/L
  ALT: 27.8 IU/L
  AST: 62.6 IU/L
  BUN: 16.6 mg/dL
  CRE: 0.4 mg/dL
  Ca: 9.3 mg/dL
  Cl: 105 meq/L
  DBIL: 0.012 mg/dL
  GLC: 193 mg/dL
  IP: 6.4 mg/dL
  K: 4.9 meq/L
  LDH: 168 IU/L
  Na: 139.4 meq/L
  PL: 142 mg/dL
  RALB: 3.8 g/dL
  TBIL: 0.046 mg/dL
  TC: 71.8 mg/dL
  TG: 158.2 mg/dL
  TP: 6.3 g/dL
  gamma-GTP: 0.6 IU/L
